Series [1] deals with MDCK cells. Description: MTT cytotoxicity assay on MDCK cells. The format is cell-based, canine. To be noted: Canis lupus familiaris, 100 μmol/L, 24 h, mean ± SD of three replicates, read-out: Growth Inhibition Rate (%). As for the experimental part:
First, we used the MTT method to perform cytotoxicity of barbatic acid derivatives (1, 6a–6p′) on MDCK cells at the concentration of 100 μmol/L, and the results are shown in Table 1.
The MTT assay was used to evaluate the cytotoxicity of the target compounds on DMCK cells. Logarithmic-growth-phase DMCK cells were seeded in a 96-well plate (10^4 cells/well) and incubated in a cell culture incubator for 24 h. The culture medium was then removed and replaced with a drug-containing medium for the treatment groups (1, 6a–6p′, 100 μmol/L), normal saline for the control group, or hydrochlorothiazide (100 μmol/L) for the positive control group. Each well was treated with 100 µL of the respective solution and incubated for an additional 24 h. The culture medium was then removed and replaced with a DMEM solution containing 20 µL of MTT (5 mg/mL). After incubating for 4 h, the liquid in each well was removed and replaced with 150 µL of DMSO, which was shaken for 10 min to ensure thorough mixing. The absorbance at 490 nm was measured to determine the optical density (OD) of each well. Cell growth inhibition rate (%) = (ODBlank − ODExperimental)/ODBlank × 100%.

For series [2], the system named is Cl^− transport, MDCK cells. Description: In vitro diuretic activity: Cl^− transport inhibition, Transwell chamber seeded with MDCK cells. Type of series: cell-based, canine. To be noted: Canis lupus familiaris; 100 μmol/L, MDCK cells in Transwell; mean ± SD of three replicates; negative = promotion; read-out: Transport Inhibition Rate (%) Cl^−. The text has this:
(§1) The traditional methods for screening diuretic drugs are mostly in vivo experiments with mice, which have a long experimental cycle and are not suitable for screening massive compounds. As we know, the generation and excretion of urine involve two processes: glomerular filtration and tubular reabsorption. Reabsorption refers to the process in which the renal tubular epithelial cells transport water and certain solutes from the tubular fluid (urine) partially or entirely back into the bloodstream. Then, 99% of the water in the original urine filtered by the glomerulus is reabsorbed, and the transport of Na^+ and Cl^− plays an important role in this process. Thiazide and furosemide diuretics exert their diuretic effects by inhibiting the transport of Na^+ and Cl^−, which affects the tubular reabsorption of the original urine. Based on this principle, we established a new type of cell screening model for diuretic active drugs. Madin–Darby canine kidney (MDCK) cells were inoculated into a Transwell chamber to simulate the renal tubules. This cell model could transport and absorb external NaCl, simulating the reabsorption phenomenon. […] The effectiveness of this model was confirmed by the validation of hydrochlorothiazide, which is a commercially available diuretic drug and could inhibit the transport of Na^+ and Cl^− in renal tubules.
(§2) Generally, the transport of Na^+ and Cl^− plays an important role in glomerular filtration and tubular reabsorption. […] For example, inhibition rates of transport of 6a and 6c were over 30%, and had better inhibitory ability than barbatic acid. […] When ethyl, propyl, and benzyl were substituted on R^1, the introduction of any group could not enhance the inhibitory activity of barbatic acid, such as 6h–u and 6j′–6p′.
(§3) Log-phase MDCK cells were seeded in the upper chambers of Transwell plates (4 × 10^4 cells/well), and 800 µL of complete culture medium was added to the lower chambers. After 24 h of incubation at 37 °C, the electrical resistance of the upper chamber cells was measured one by one (R = (Rcell − Rblank) × 0.04π). When the electrical resistance of the upper chamber cells reached ≥300 Ω cm^2, the upper chamber medium was removed and replaced with the drug solution. The blank group (given normal saline), the experimental group (1, 6a–6p′, 100 μmol/L), and the hydrochlorothiazide group (100 μmol/L) were set, and each well was treated with 100 µL of the corresponding solution. The cells were then further incubated for 24 h. After that, the upper and lower chamber fluids were removed, and 200 µL of NaCl solution (15 mg/mL) was added to the upper chamber, while 800 µL of DMEM was added to the lower chamber for continued incubation. At 0.5, 1, 2, and 3 h, 50 µL of the lower chamber fluid was taken and the OD values were measured using Na^+ and Cl^− detection kits. The transport inhibition rate (%) was calculated as follows: transport inhibition rate (%) = (ODblank − ODexperimental)/ODblank × 100%.

Series [3] deals with Na^+ transport, MDCK cells. The experiment in a line: In vitro diuretic activity: Na^+ transport inhibition, Transwell chamber seeded with MDCK cells. The format is cell-based, canine. To be noted: Canis lupus familiaris, MDCK, 100 μmol/L, MDCK cells in Transwell; mean ± SD of three replicates; negative = promotion; read-out: Transport Inhibition Rate (%) Na^+.
Source text: as §1, §2, §3

For series [4], the system named is Ca^2+ transport, MDCK cells. Description: In vitro litholytic activity: Ca^2+ transport inhibition, Transwell chamber with MDCK cells. Type of series: cell-based, canine. To be noted: Canis lupus familiaris, 100 μmol/L, mean ± SD of three replicates, read-out: Transport Inhibition Rate (%) Ca^2+. As for the experimental part:
(§4) On the other hand, all compounds had little inhibitory effect on Ca^2+ transport. The structure–activity relationships (SARs) were also observed. […] On the other hand, the introduction of the benzyl group to the R^1 or R^2 of barbatic acid could not lead to more promising compounds, such as 6a, 6n, 6u, 6b′, and 6i′–p′.
(§5) Logarithmic-phase DMCK cells were inoculated in the upper chamber of a Transwell plate (4 × 10^4 cells/well). Then, 800 µL of complete culture medium was added to the lower chamber, and the cells were incubated for 24 h until they adhered to the wall. The resistance value of the upper chamber cells was measured one by one at 37 °C (R = (Rcell − Rblank) × 0.04π). When the resistance value of the upper chamber cells was ≥300 Ω cm^2, the upper chamber liquid was discarded for drug administration. A control group (given physiological saline) and an experimental group (1, 6a–6p′, 100 μmol/L) were set up, and 100 µL of each drug was administered per well, followed by continued incubation for 24 h. Then, the upper and lower chamber liquids were discarded, and 200 µL of CaC2O4 (30 mmol/L) solution was added to the upper chamber, and 800 µL of PBS solution was added to the lower chamber for continued incubation. At 0.5, 1, 2, and 3 h, 50 µL of the lower chamber liquid was taken and then tested using the Ca^2+ and C2O4^2− detection kits and the following detection methods. The transport inhibition rate (%) = (ODblank − ODexperimental)/ODblank × 100%.

Series [5] deals with C2O4^2− transport, MDCK cells. The experiment in a line: In vitro litholytic activity: C2O4^2− transport inhibition, Transwell chamber with MDCK cells. Type of series: cell-based, canine. Particulars: for inhibition at 100 µM: Canis lupus familiaris, 100 μmol/L, MDCK cells in Transwell, mean ± SD of three replicates, read-out: Transport Inhibition Rate (%) C2O4^2−; for C2O4^2− transport inhibition activity at different time periods: 1, 2, and 3 h (Figure 4). As for the experimental part: as §4, §5

The results in this text go back to article PMC10222548, “Semisynthesis, Biological Evaluation and Molecular Docking Studies of Barbatic Acid Derivatives as Novel Diuretic Candidates” (Molecules, 2023).

Compound `CCOc1cc(C)c(C(=O)Oc2cc(C)c(C(=O)OC)c(O)c2C)c(O)c1C` [Compound 6h, 3-hydroxy-4-(methoxycarbonyl)-2,5-dimethylphenyl 4-ethoxy-2-hydroxy-3,6-dimethylbenzoate] came in with a melting point of 152 to 155 °C. Besides, the inhibition at 100 µM in series [1] was < 0%. In series [2], the inhibition at 100 µM came out at 2.19 ± 0.55%. For the same compound, in series [3], the inhibition at 100 µM is -7.67 ± 1%. For the same compound, the inhibition at 100 µM in series [4] is -3.85 ± 0.19%. Also, the inhibition at 100 µM in series [5] is -4.23 ± 4.77%.

Consider `CCOC(=O)c1c(C)cc(OC(=O)c2c(C)cc(OCC)c(C)c2O)c(C)c1O` [Compound 6i, 4-(ethoxycarbonyl)-3-hydroxy-2,5-dimethylphenyl 4-ethoxy-2-hydroxy-3,6-dimethylbenzoate], for which the melting point lay within 187 to 190 °C. The inhibition at 100 µM in series [1] is < 0%. Besides, in series [2], the inhibition at 100 µM was -2.13 ± 1.9%. In series [3], the inhibition at 100 µM came out at 5.2 ± 3.6%. Further, in series [4], the inhibition at 100 µM was 1.71 ± 0.13%. Moreover, in series [5], the inhibition at 100 µM turned out to be 54 ± 10.4%.

`CCCOC(=O)c1c(C)cc(OC(=O)c2c(C)cc(OCC)c(C)c2O)c(C)c1O` [Compound 6j, 3-hydroxy-2,5-dimethyl-4-(propoxycarbonyl)phenyl 4-ethoxy-2-hydroxy-3,6-dimethylbenzoate]: the melting point lay in the range of 154 to 157 °C. Further, in series [1], the inhibition at 100 µM is < 0%. For the same compound, in series [2], the inhibition at 100 µM is 5.75 ± 1.1%. Moreover, in series [3], the inhibition at 100 µM is 5.2 ± 3.6%. The inhibition at 100 µM in series [4] was 4.45 ± 0.29%. Also, in series [5], the “C2O4^2− transport inhibition activity at different time periods” value was “very strong and continual inhibitory activities”; the inhibition at 100 µM was found to be 42.3 ± 1.66%.

`CCOc1cc(C)c(C(=O)Oc2cc(C)c(C(=O)OC(C)C)c(O)c2C)c(O)c1C` [Compound 6k, 3-hydroxy-4-(isopropoxycarbonyl)-2,5-dimethylphenyl 4-ethoxy-2-hydroxy-3,6-dimethylbenzoate] displayed a melting point of 125 to 128 °C. Further, the inhibition at 100 µM in series [1] is < 0%. Further, the inhibition at 100 µM in series [2] was -7.1 ± 1%. Further, the inhibition at 100 µM in series [3] is -62.5 ± 1.95%. Besides, the inhibition at 100 µM in series [4] was determined as 1.2 ± 0.13%. In addition, in series [5], the inhibition at 100 µM was -5.12 ± 1.75%.

With `CCOc1cc(C)c(C(=O)Oc2cc(C)c(C(=O)OCC#N)c(O)c2C)c(O)c1C` [Compound 6m, 4-((cyanomethoxy)carbonyl)-3-hydroxy-2,5-dimethylphenyl 4-ethoxy-2-hydroxy-3,6-dimethylbenzoate], the melting point was 160 to 163 °C. Besides, the inhibition at 100 µM in series [1] is < 0%. For the same compound, the inhibition at 100 µM in series [2] is -29.3 ± 1.75%. For the same compound, the inhibition at 100 µM in series [3] was -2.99 ± 6%. Moreover, in series [4], the inhibition at 100 µM was determined as 2.57 ± 0.1%. Besides, in series [5], the “C2O4^2− transport inhibition activity at different time periods” value is “very strong and continual inhibitory activities”; the inhibition at 100 µM was 61 ± 2.75%.

In the case of `CCOc1cc(C)c(C(=O)Oc2cc(C)c(C(=O)OCc3ccccc3)c(O)c2C)c(O)c1C` [Compound 6n, benzyl 4-(4-ethoxy-2-hydroxy-3,6-dimethylbenzoyloxy)-2-hydroxy-3,6-dimethylbenzoate], the melting point was in the range of 129 to 131 °C. Also, the inhibition at 100 µM in series [1] amounted to 0.36 ± 0.8%. Also, the inhibition at 100 µM in series [2] is -4.47 ± 0.2%. Besides, the inhibition at 100 µM in series [3] was -3.98 ± 0.15%. Further, in series [4], the inhibition at 100 µM is -2.13 ± 0.3%. Moreover, in series [5], the inhibition at 100 µM came to 0.11 ± 0.7%.

In turn, `CCCOc1cc(C)c(C(=O)Oc2cc(C)c(C(=O)OC)c(O)c2C)c(O)c1C` [Compound 6o, 3-hydroxy-4-(methoxycarbonyl)-2,5-dimethylphenyl 2-hydroxy-3,6-dimethyl-4-propoxybenzoate] showed a melting point of 110 to 113 °C. In series [1], the inhibition at 100 µM was < 0%. In series [2], the inhibition at 100 µM is -2.8 ± 1.2%. The inhibition at 100 µM in series [3] was -2.68 ± 0.45%. Further, the inhibition at 100 µM in series [4] is 4.43 ± 0.13%. Further, the inhibition at 100 µM in series [5] came out at 5.6 ± 3.85%.
